Measurements reported in US9708314B2, “Heterocyclic amide compound” (NISSAN CHEMICAL INDUSTRIES, LTD., priority 2013, dated 2017).

What was measured:
Type in all cases: in vivo
Lolium multiflorum Lam. = test: Test Example 4: herbicidal effect by application to foliage (diluvial soil, plastic box); conditions: foliage application, 320 g/ha
How it was run: (§1)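 Seeds sown in sterilized diluvial soil, covered ~1.5 cm, grown 14 days in greenhouse at 25° C. to 30° C. Emulsion formulation diluted in water to set rate (g/ha) and sprayed onto stems and leaves. Effect scored visually 3 weeks later on 0–5 scale (5 = ≥90% herbicidal ratio, 0 = ≤5%).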

[1] = tested on: Echinochloa crus-galli var. crus-galli; test: as above; conditions: foliage application, 320 g/ha
How it was run: as §1

Galium spurium = test: as above; conditions: foliage application, 320 g/ha
How it was run: as §1

Alopecurus myosuroides = test: as above; conditions: foliage application, 320 g/ha
How it was run: as §1

Amaranthus retroflexus = test: as above; conditions: foliage application, 320 g/ha
How it was run: as §1

Digitaria ciliaris = test: as above; conditions: foliage application, 320 g/ha
How it was run: as §1

Setaria viridis = test: as above; conditions: foliage application, 320 g/ha
How it was run: as §1

Stellaria media = test: as above; conditions: foliage application, 320 g/ha
How it was run: as §1

Avena fatua = test: as above; conditions: foliage application, 320 g/ha
How it was run: as §1

Abutilon theophrasti = test: as above; conditions: foliage application, 320 g/ha
How it was run: as §1

Veronica persica = test: as above; conditions: foliage application, 320 g/ha
How it was run: as §1

Apera spica-venti. = test: as above; conditions: foliage application, 320 g/ha
How it was run: as §1

Chenopodium album = test: as above; conditions: foliage application, 320 g/ha
How it was run: as §1

[2] = tested on: directly sowed Oryza sativa; test: Test Example 3: effect on crop by application to foliage (Wagner pot, water depth 0.1-0.5 cm); conditions: Nineteenth Table; application to foliage; application herbicide amount 320 g/ha
How it was run: (§2)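 Visual 0–5 rating of herbicidal ratio, taken 3 weeks after foliar spray of a diluted emulsion formulation at rates expressed as g/ha. Plants had been sown in alluvial soil under 0.1–0.5 cm water and grown 14 days at 25–30 °C under glass before application.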

[3] = tested on: Echinochloa crus-galli var. crus-galli; test: Test Example 3: herbicidal effect by application to foliage (Wagner pot, water depth 0.1-0.5 cm); conditions: Nineteenth Table; application to foliage; application herbicide amount 320 g/ha
How it was run: as §2

Leptochloa chinensis = test: as above; conditions: Nineteenth Table; application to foliage; application herbicide amount 320 g/ha
How it was run: as §2

Cyperus difformis = test: as above; conditions: Nineteenth Table; application to foliage; application herbicide amount 320 g/ha
How it was run: as §2

Row | Compound | K (Lolium multiflorum Lam.) herbicidal effect grade (Lolium multiflorum Lam.) | H (Echinochloa crus-galli var. crus-galli) herbicidal effect grade [1] | Q (Galium spurium) herbicidal effect grade (Galium spurium) | J (Alopecurus myosuroides) herbicidal effect grade (Alopecurus myosuroides) | N (Amaranthus retroflexus) herbicidal effect grade (Amaranthus retroflexus) | F (Digitaria ciliaris) herbicidal effect grade (Digitaria ciliaris) | G (Setaria viridis) herbicidal effect grade (Setaria viridis) | P (Stellaria media) herbicidal effect grade (Stellaria media) | I (Avena fatua) herbicidal effect grade (Avena fatua) | M (Abutilon theophrasti) herbicidal effect grade (Abutilon theophrasti) | R (Veronica persica) herbicidal effect grade (Veronica persica) | L (Apera spica-venti.) herbicidal effect grade (Apera spica-venti.) | O (Chenopodium album) herbicidal effect grade (Chenopodium album) | b (effect on crop grade) [2] | H (herbicidal effect grade) [3] | D (herbicidal effect grade) (Leptochloa chinensis) | E (herbicidal effect grade) (Cyperus difformis)
1 | CC(C)Nc1nnc2c(C(=O)Nc3nnnn3C)ccc(C(F)(F)F)n12 [2-066] | 3 (Herbicidal ratio of 40% or more and less than 70%) | 5 (Herbicidal ratio of 90% or more (almost completely withered)) | 3 (Herbicidal ratio of 40% or more and less than 70%) | 3 (Herbicidal ratio of 40% or more and less than 70%) | 5 (Herbicidal ratio of 90% or more (almost completely withered)) | 5 (Herbicidal ratio of 90% or more (almost completely withered)) | 5 (Herbicidal ratio of 90% or more (almost completely withered)) | 5 (Herbicidal ratio of 90% or more (almost completely withered)) | 2 (Herbicidal ratio of 20% or more and less than 40%) | 4 (Herbicidal ratio of 70% or more and less than 90%) | 5 (Herbicidal ratio of 90% or more (almost completely withered)) | 3 (Herbicidal ratio of 40% or more and less than 70%) | 5 (Herbicidal ratio of 90% or more (almost completely withered)) | 3 (Herbicidal ratio of 40% or more and less than 70%) | 5 (Herbicidal ratio of 90% or more (almost completely withered)) | 5 (Herbicidal ratio of 90% or more (almost completely withered)) | 5 (Herbicidal ratio of 90% or more (almost completely withered))
2 | Cn1nnnc1NC(=O)c1ccc(C(F)(F)F)n2c([S+](C)[O-])nnc12 (stereo not shown) [2-067] | 4 (Herbicidal ratio of 70% or more and less than 90%) | 5 (Herbicidal ratio of 90% or more (almost completely withered)) | 4 (Herbicidal ratio of 70% or more and less than 90%) | 4 (Herbicidal ratio of 70% or more and less than 90%) | 5 (Herbicidal ratio of 90% or more (almost completely withered)) | 5 (Herbicidal ratio of 90% or more (almost completely withered)) | 5 (Herbicidal ratio of 90% or more (almost completely withered)) | 5 (Herbicidal ratio of 90% or more (almost completely withered)) | 5 (Herbicidal ratio of 90% or more (almost completely withered)) | 5 (Herbicidal ratio of 90% or more (almost completely withered)) | 5 (Herbicidal ratio of 90% or more (almost completely withered)) | 3 (Herbicidal ratio of 40% or more and less than 70%) | 5 (Herbicidal ratio of 90% or more (almost completely withered)) | 5 (Herbicidal ratio of 90% or more (almost completely withered)) | 5 (Herbicidal ratio of 90% or more (almost completely withered)) | 5 (Herbicidal ratio of 90% or more (almost completely withered)) | 5 (Herbicidal ratio of 90% or more (almost completely withered))
3 | CCCSc1nnc2c(C(=O)Nc3nnnn3C)ccc(C(F)(F)F)n12 [2-068] | 2 (Herbicidal ratio of 20% or more and less than 40%) | 5 (Herbicidal ratio of 90% or more (almost completely withered)) | 4 (Herbicidal ratio of 70% or more and less than 90%) | 2 (Herbicidal ratio of 20% or more and less than 40%) | 5 (Herbicidal ratio of 90% or more (almost completely withered)) | 5 (Herbicidal ratio of 90% or more (almost completely withered)) | 5 (Herbicidal ratio of 90% or more (almost completely withered)) | 5 (Herbicidal ratio of 90% or more (almost completely withered)) | 3 (Herbicidal ratio of 40% or more and less than 70%) | 5 (Herbicidal ratio of 90% or more (almost completely withered)) | 5 (Herbicidal ratio of 90% or more (almost completely withered)) | 3 (Herbicidal ratio of 40% or more and less than 70%) | 5 (Herbicidal ratio of 90% or more (almost completely withered)) | 5 (Herbicidal ratio of 90% or more (almost completely withered)) | 5 (Herbicidal ratio of 90% or more (almost completely withered)) | 5 (Herbicidal ratio of 90% or more (almost completely withered)) | 5 (Herbicidal ratio of 90% or more (almost completely withered))
4 | CCC[S+]([O-])c1nnc2c(C(=O)Nc3nnnn3C)ccc(C(F)(F)F)n12 (stereo not shown) [2-069] | 3 (Herbicidal ratio of 40% or more and less than 70%) | 5 (Herbicidal ratio of 90% or more (almost completely withered)) | 4 (Herbicidal ratio of 70% or more and less than 90%) | 3 (Herbicidal ratio of 40% or more and less than 70%) | 5 (Herbicidal ratio of 90% or more (almost completely withered)) | 5 (Herbicidal ratio of 90% or more (almost completely withered)) | 5 (Herbicidal ratio of 90% or more (almost completely withered)) | 5 (Herbicidal ratio of 90% or more (almost completely withered)) | 5 (Herbicidal ratio of 90% or more (almost completely withered)) | 5 (Herbicidal ratio of 90% or more (almost completely withered)) | 5 (Herbicidal ratio of 90% or more (almost completely withered)) | 4 (Herbicidal ratio of 70% or more and less than 90%) | 5 (Herbicidal ratio of 90% or more (almost completely withered)) | 5 (Herbicidal ratio of 90% or more (almost completely withered)) | 5 (Herbicidal ratio of 90% or more (almost completely withered)) | 5 (Herbicidal ratio of 90% or more (almost completely withered)) | 5 (Herbicidal ratio of 90% or more (almost completely withered))
5 | CCCS(=O)(=O)c1nnc2c(C(=O)Nc3nnnn3C)ccc(C(F)(F)F)n12 [2-070] | 4 (Herbicidal ratio of 70% or more and less than 90%) | 5 (Herbicidal ratio of 90% or more (almost completely withered)) | 4 (Herbicidal ratio of 70% or more and less than 90%) | 4 (Herbicidal ratio of 70% or more and less than 90%) | 5 (Herbicidal ratio of 90% or more (almost completely withered)) | 5 (Herbicidal ratio of 90% or more (almost completely withered)) | 5 (Herbicidal ratio of 90% or more (almost completely withered)) | 5 (Herbicidal ratio of 90% or more (almost completely withered)) | 5 (Herbicidal ratio of 90% or more (almost completely withered)) | 4 (Herbicidal ratio of 70% or more and less than 90%) | 5 (Herbicidal ratio of 90% or more (almost completely withered)) | 4 (Herbicidal ratio of 70% or more and less than 90%) | 5 (Herbicidal ratio of 90% or more (almost completely withered)) | 3 (Herbicidal ratio of 40% or more and less than 70%) | 5 (Herbicidal ratio of 90% or more (almost completely withered)) | 5 (Herbicidal ratio of 90% or more (almost completely withered)) | 5 (Herbicidal ratio of 90% or more (almost completely withered))
